In patent US20130244929A1 (priority 2010, published 2013):
pIC50: −log10 of the molar value. Where two headings read alike, the source gives them in different places.

Experiments:
[1] = from COC(=O)[C@H](Cc1ccc(OC)c(B2OC(C)(C)C(C)(C)O2)c1)NC(=O)[C@H](C)NC(=O)[C@@H](NC(=O)OC(C)(C)C)c1ccc(OC)c(I)c1; cc_pd bond; PdCl2(dppf); acetonitrile; 70.3 mM; 44.0 °C; 3.0 h
[2] = tested on: MB 5393 (COL), a methicillin-resistant S. aureus strain; experiment: Determination of minimum and synergistic inhibitory concentration; assay type: cell-based; settings: for SIC: presence of imipenem (4 μg/mL); for MIC: Staphylococcus aureus
Method in brief: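 Broth microdilution: two-fold compound dilutions (final 64 to 0.0313 μg/mL) tested with and without subinhibitory imipenem (4 μg/mL) against MRSA COL at ~5×10^5 CFU/mL, 37°C, 22-24 hr stationary. MIC is lowest concentration preventing visible growth without imipenem; SIC same with imipenem.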

SpsB = biological target: T1, SpsB (Staphylococcus aureus, UniProt P0A070); experiment: Inhibition of SpsB enzyme activity (fluorescence-based assay, bacterial membrane fraction); assay type: biochemical
T1 construct: using a bacterial membrane fraction as a source of SpsB; from tissue
T1 sequence (P0A070 1-191): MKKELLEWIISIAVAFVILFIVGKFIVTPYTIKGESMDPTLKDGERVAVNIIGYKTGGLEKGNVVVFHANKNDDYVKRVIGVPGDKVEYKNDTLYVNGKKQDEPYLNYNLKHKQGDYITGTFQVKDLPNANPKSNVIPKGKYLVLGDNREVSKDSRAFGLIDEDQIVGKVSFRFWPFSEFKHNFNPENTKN
Method in brief: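 Membrane fraction from bacteria supplied SpsB (0.6 mg/mL final protein), added last to start reactions with 20 μM lipopeptide substrate decanoyl-K(DABCYL)-TPTAKA↓ASKKD-D(EDANS)-NH2 (Km≈5 μM). Cleavage was followed as rising fluorescence, excitation 340/emission 460 nm.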

[3] = tested on: Staphylococcus aureus (strain B, MRSA COL); experiment: Deep thigh MRSA infection mouse model; assay type: in vivo, mice BALB/c
Method: (§1) Female mice BALB/c mice (20-25 g) were rendered neutropenic via intraperitoneal injection of cyclophosphamide (Mead Johnson Pharmaceuticals) on Day −4 (250 mg/kg, disseminated) or Days −4/−1 (150/100 mg/kg, deep thigh) prior to experimental infection. Neutropenic mice were infected on Day 0 via intraperitoneal (disseminated) or intramuscular (deep thigh) injection of 0.1 ml containing ˜1-5×10^4 CFU Staphylococcus aureus (strain B, MRSA COL). Linezolid (Zyvox IV solution, Bell Medical) was employed as an assay control. Fifteen minutes post infection, increasing doses of Example 3 (20, 40 and 80 mg/kg) or vehicle were administered subcutaneously (SC) TID with or without Imipenem/Cilastatin (6/50 mg/kg SC TID, disseminated; 10/50 mg/kg SC TID, deep thigh). Twenty four hours post dosing, mice were euthanized and infected kidneys (disseminated) or thighs (deep thigh) were aseptically removed, placed in 4 ml sterile phosphate buffered saline (Fisher Scientific), and homogenized using a Polytron (Brinkmann Instruments). Homogenates were serially 100-fold diluted in 9.9 ml sterile saline and plated on Mannitol Salt Agar plates. Plates were incubated at 35° C. for 48 hours and colony forming units (CFU) of bacteria remaining per thigh were determined.

[4] = tested on: Staphylococcus aureus (strain B, MRSA COL); experiment: Disseminated MRSA infection mouse model; assay type: in vivo, mice BALB/c
Method: as §1

MRSA strain COL = experiment: Checkerboard studies with imipenem; assay type: cell-based, Staphylococcus aureus; settings: combined with Imipenem, FIG. 1
Method: FIG. 1: An SpsB inhibitor and Imipenem synergize to inhibit bacterial growth in vitro. The MIC of SpsB inhibitor on the MRSA strain COL was assessed by varying the concentration of the compound (0.016-16 μg/ml) in the absence and presence of various concentrations of Imipenem (0.5-32 μg/ml) and FIC values were generated for both compounds.
The checkerboard method is the technique most frequently used to assess antimicrobial combinations in vitro. See Antibiotics in Laboratory Medicine, Victor Lorian ed., 2005). The checkerboard comprises a two-dimensional dilution scheme: columns in which each well contains the same amount of Drug A being two-fold diluted along the x-axis, and rows in which each well contains the same amount of Drug B being two-fold diluted on the Y-axis. The result is that each well contains a unique combination of the two drugs being tested. Also tested is the antimicrobial activity of each agent singly.
Imipenem was two-fold serially diluted along the Y-axis of 96-well U-bottom microtiter dishes (Fisher Scientific) in microbiological growth media (either brain heart infusion broth or cation-adjusted Mueller-Hinton broth +2% NaCl). […]
In this representation, data are expressed as fractional inhibitory concentrations (FIC), defined as the ratio between the MIC of one compound in the presence of the other, over its MIC alone. […]

[5] = MRSA COL, absence of imipenem, 22 hours, read-out: MIC

SMILES	SIC ([2]; MRSA COL, 22 hours)	MIC [2, 5] [µg/mL]	MIC ([2]; MRSA, 22 h) [µg/mL]	pIC50 (SpsB)	further results
COC(=O)[C@@H]1Cc2ccc(OC)c(c2)-c2cc(ccc2OC)[C@H](NC(=O)OC(C)(C)C)C(=O)N[C@@H](C)C(=O)N1					ring closure, yield of all isomers [1]: 20%
CCCc1ccc(-c2ccc(C(=O)NCCC(=O)N[C@H](CCCCN)C(=O)N(C)[C@@H]3C(=O)N[C@@H](C)C(=O)N[C@H](CO)Cc4ccc(O)c(c4)-c4cc3ccc4O)cc2)cc1.O=C(O)C(F)(F)F (mixture of isomers) [EXAMPLE 5, (5R,S)-6-[[(7S,10S,13S)-3,18-dihydroxy-13-(hydroxymethyl)-10-methyl-8,11-dioxo-9,12-diazatricyclo[13.3.1.1^2,6]icosa-1(19),2(20),3,5,15,17-hexaen-7-yl](methyl)amino]-6-oxo-5-[(3-{[(4′-propylbiphenyl-4-yl)carbonyl]amino}propanoyl)amino]hexan-1-aminium trifluoroacetate]	H (H: SIC 0.062-1)	< 1			pIC50 (SpsB; 20 μM peptide substrate, read-out: SpsB IC50): > 8.00
CC(C)CCCC(C)CCc1ccc(-c2ccc(C(=O)NCCC(=O)N[C@@H](CCCCN)C(=O)N(C)[C@@H]3C(=O)N[C@@H](C)C(=O)N[C@H](C(=O)O)Cc4ccc(O)c(c4)-c4cc3ccc4O)cc2)cc1 (stereo partly drawn) [EXAMPLE 25]	G (G: SIC <0.0625)		< 1	> 8.00	
CCCc1ccc(-c2ccc(C(=O)NCCC(=O)N[C@@H](CCCCN)C(=O)N(C)[C@@H]3C(=O)N[C@@H](C)C(=O)N[C@H](C(=O)O)Cc4ccc(O)c(c4)-c4cc3ccc4O)cc2)cc1.O=C(O)C(F)(F)F [EXAMPLE 3, (5S)-6-[[(7S,10S,13S)-13-carboxy-3,18-dihydroxy-10-methyl-8,11-dioxo-9,12-diazatricyclo[13.3.1.1^2,6]icosa-1(19),2(20),3,5,15,17-hexaen-7-yl](methyl)amino]-6-oxo-5-[(3-{[(4′-propylbiphenyl-4-yl)carbonyl]amino}propanoyl)amino]hexan-1-aminium trifluoroacetate]	H (H: SIC 0.062-1)	< 1		> 8.00	effect on MRSA COL bacterial burden ([3]; Example 3 alone, 20, 40 and 80 mg/kg SC TID, thighs, relative to vehicle, FIG. 2B): negligible anti-bacterial effects; reduction in bacterial burden ([3]; co-administered with Imipenem/Cilastatin 10/50 mg/kg SC TID, deep thigh): 2-3 log; effect on MRSA COL bacterial burden ([4]; Example 3 alone, 20, 40 and 80 mg/kg SC TID, kidneys, relative to vehicle, FIG. 2A): negligible anti-bacterial effects; reduction in bacterial burden ([4]; co-administered with Imipenem/Cilastatin 6/50 mg/kg SC TID, disseminated): 2-3 log; synergy in isobologram (FIC) of bacterial growth (MRSA strain COL): synergistic effect
CCCc1ccc(-c2ccc(C(=O)NCCC(=O)N3CCC[C@@H]3C(=O)N(C)[C@@H]3C(=O)N[C@@H](C)C(=O)N[C@H](C(=O)O)Cc4ccc(OC)c(c4)-c4cc3ccc4OC)cc2)cc1 [EXAMPLE 13, (8S,11S,14S)-3,18-dimethoxy-11-methyl-14-(methyl{[(2R)-1-(3-{[(4′-propylbiphenyl-4-yl)carbonyl]amino}propanoyl)pyrrolidin-2-yl]carbonyl}amino)-10,13-dioxo-9,12-diazatricyclo[13.3.1.1^2,6]icosa-1(19),2(20),3,5,15,17-hexaene-8-carboxylic acid]	I (I: SIC >1)	> 8		< 7.30	
CCCCCCCCCc1ccc(-c2ccc(C(=O)NCCC(=O)N[C@@H](CCCCN)C(=O)N(C)[C@@H]3C(=O)N[C@@H](C)C(=O)N[C@H](C(=O)O)Cc4ccc(O)c(c4)-c4cc3ccc4O)cn2)cc1 [EXAMPLE 54]	G (G: SIC <0.0625)		< 1	> 8.00	
CCCCCCCCCc1ccc(-c2ccc(C(=O)NCCC(=O)N[C@@H](CCCCO)C(=O)N(C)[C@@H]3C(=O)N[C@@H](C)C(=O)N[C@H](C(=O)O)Cc4ccc(O)c(c4)-c4cc3ccc4O)cc2)cc1 [EXAMPLE 50]	H (H: SIC 0.062-1)	> 8		> 8.00	
CCCCCCCCCCc1ccc2ccc(C(=O)NCCC(=O)N3CCC[C@H]3C(=O)N(C)[C@@H]3C(=O)N[C@@H](C)C(=O)N[C@H](C(=O)O)Cc4cccc(c4)-c4cc3ccc4OC)cc2c1 [EXAMPLE 67]	I (I: SIC >1)	> 8		7.30 to 8.00	
CCCc1ccc(-c2ccc(C(=O)NCCC(=O)N[C@H](CCCCN)C(=O)N(C)[C@@H]3C(=O)N[C@@H](C)C(=O)N[C@H](C(=O)O)Cc4ccc(O)c(c4)-c4cc3ccc4O)cc2)cc1.O=C(O)C(F)(F)F [EXAMPLE 4, (5R)-6-[[(7S,10S,13S)-13-carboxy-3,18-dihydroxy-10-methyl-8,11-dioxo-9,12-diazatricyclo[13.3.1.1^2,6]icosa-1(19),2(20),3,5,15,17-hexaen-7-yl](methyl)amino]-6-oxo-5-[(3-{[(4′-propylbipherryl-4-yl)carbonyl]amino}propanoyl)amino]hexan-1-aminium trifluoroacetate]	I (I: SIC >1)	> 8		< 7.30	
C[C@@H]1NC(=O)[C@@H](N(C)C(=O)[C@H](CCCCN)NC(=O)CCNC(=O)c2ccc(-c3ccc(C4CCCCC4)cc3)cc2)c2ccc(O)c(c2)-c2cc(ccc2O)C[C@@H](C(=O)O)NC1=O [EXAMPLE 49]	G (G: SIC <0.0625)		< 1	> 8.00	
